Source: ChEMBL document CHEMBL1201862, “PubChem BioAssay data set” (2004)
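Assay format: 96-well plates, 48-hour exposure. The concentration for 50% growth inhibition is given as GI50.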 Activity calls are given as the source filed them. Cut-off read from the data, not from the text of the source: active = GI50 up to about 1.1 µM and inactive = higher.

How the values were obtained:
Assay in all cases: NCI-60 cell line screen, 48 h
[1] = system: HCT-15
[2] = system: A498
[3] = system: MCF7
[4] = system: CAKI-1
[5] = system: SK-MEL-2
[6] = system: SW-620
[7] = system: SF-268
[8] = system: Malme-3M
[9] = system: UACC-62
[10] = system: U-251
[11] = system: NCI-H460
[12] = system: NCI-H23
[13] = system: SF-539
[14] = system: OVCAR-8
[15] = system: TK-10
[16] = system: MDA-MB-231
[17] = system: IGROV-1
[18] = system: SNB-75
[19] = system: MDA-N

Measured: GI50

C/C(=C\c1ccc2c(c1)OCO2)[N+](=O)[O-]
inactive: [2] 7.23 µM | [4] 2.28 µM | [5] 2.99 µM | [6] 2.59 µM | [7] 3.44 µM | [8] 2.84 µM | [9] 2.01 µM | [10] 1.79 µM | [11] 3.26 µM | [12] 2.46 µM | [13] 2.91 µM | [14] 2.77 µM | [15] 2.45 µM | [16] 6.49 µM | [17] 2.34 µM | [18] 5.16 µM
1.96 µM: [1]
active: [3] 0.205 µM

CCOC(=O)c1c(-c2ccccc2)nc2c(OC)nccn12
inactive: [3] > 100 µM | [4] > 100 µM | [5] > 100 µM | [6] > 100 µM | [7] > 100 µM | [8] > 100 µM | [9] > 100 µM | [10] > 100 µM | [11] > 100 µM | [12] > 100 µM | [13] > 100 µM | [14] > 100 µM | [15] 60.5 µM | [16] > 100 µM | [17] > 100 µM | [18] > 100 µM
> 100 µM: [1]

NNC(=O)c1nn[nH]c1SSc1[nH]nnc1C(=O)NN
inactive: [3] > 100 µM | [4] > 100 µM | [5] > 100 µM | [6] > 100 µM | [19] > 100 µM | [7] > 100 µM | [9] > 100 µM | [10] > 100 µM | [11] > 100 µM | [12] > 100 µM | [13] > 100 µM | [14] > 100 µM | [15] > 100 µM | [16] > 100 µM | [17] > 100 µM | [18] > 100 µM
> 100 µM: [1]

Cn1c(-c2ccc(-c3cc(-c4cccs4)c(-c4cccs4)n3C)cc2)cc(-c2cccs2)c1-c1cccs1
> 100 µM: [1]
inactive: [3] > 100 µM | [4] > 100 µM | [5] > 100 µM | [6] > 100 µM | [19] > 100 µM | [7] > 100 µM | [9] > 100 µM | [10] > 100 µM | [11] > 100 µM | [13] > 100 µM | [14] > 100 µM | [15] > 100 µM | [16] > 100 µM | [17] > 100 µM | [18] > 100 µM

c1ccc2c(c1)SC1=C(SC(=C3SC4=C(S3)Sc3ccccc3S4)S1)S2
inactive: [3] > 100 µM | [4] > 100 µM | [5] > 100 µM | [6] > 100 µM | [19] > 100 µM | [7] > 100 µM | [8] > 100 µM | [9] > 100 µM | [10] > 100 µM | [11] > 100 µM | [12] > 100 µM | [13] > 100 µM | [14] > 100 µM | [15] > 100 µM | [16] > 100 µM | [17] > 100 µM | [18] 49.4 µM
> 100 µM: [1]

Cc1cc2ncn(C3CCCCO3)c2cc1C (configuration not stated)
> 100 µM: [1]
inactive: [3] > 100 µM | [4] > 100 µM | [5] > 100 µM | [6] > 100 µM | [19] > 100 µM | [7] > 100 µM | [8] > 100 µM | [9] > 100 µM | [10] > 100 µM | [12] 50.2 µM | [13] > 100 µM | [14] > 100 µM | [15] > 100 µM | [16] > 100 µM | [17] > 100 µM | [18] > 100 µM

N#C/C(=C\c1ccccc1)c1nc(-c2cc3ccccc3oc2=O)cs1
inactive: [3] > 100 µM | [4] > 100 µM | [5] > 100 µM | [6] > 100 µM | [7] 60 µM | [8] > 100 µM | [9] 43.1 µM | [10] 41.6 µM | [11] > 100 µM | [13] 58.5 µM | [14] > 100 µM | [15] 45.2 µM | [16] 71.3 µM | [17] 48.5 µM | [18] 39.3 µM
> 100 µM: [1]

CC(=O)OC(CN1CCN(c2ccccn2)CC1)Cn1sc2nc(C)cc(C)c2c1=O (configuration not stated)
20 µM: [1]
inactive: [2] 18.1 µM | [3] 17.9 µM | [4] 18.9 µM | [5] 18.3 µM | [6] 26.4 µM | [7] 17.3 µM | [8] 18.6 µM | [9] 16.4 µM | [10] 18.1 µM | [11] 18.5 µM | [12] 20.8 µM | [13] 14.6 µM | [14] 28.7 µM | [15] 17.3 µM | [16] 17.9 µM | [17] 18.2 µM | [18] 16 µM
